Data: patent US20120083522A1, “MODULATION OF INFLAMMATORY RESPONSES BY FACTOR XI” (Isis Pharmaceuitcals, inc., priority 2009, published 2012)
In the oligonucleotide strings, read from the 5' end, every base follows the letter of its sugar. An asterisk marks phosphorothioate; unmarked linkages are phosphodiester. Other units and linkages are bracketed, terminal groups are in braces. A string of capitals states the bases alone. e = 2'-O-(2-methoxyethyl) (MOE); [5mC] = 5-methylcytosine; d = 2'-deoxy (DNA)

Test system: human Factor XI mRNA
Test: Antisense inhibition in HepG2 cells by microwalk gapmers, 75 nM, lipofectin (Example 3)
Type: cell-based
Conditions: HepG2 cells, 75 nM
Method: These gapmers were designed by creating gapmers shifted slightly upstream and downstream (i.e. “microwalk”) of the original gapmers from Table 3. Gapmers were also created with various motifs, e.g. 5-10-5 MOE, 3-14-3 MOE, and 2-13-5 MOE. These gapmers were tested in vitro. Cultured HepG2 cells at a density of 10,000 cells per well were transfected using lipofectin reagent with 75 nM antisense oligonucleotide. After a treatment period of approximately 24 hours, RNA was isolated from the cells and Factor XI mRNA levels were measured by quantitative real-time PCR. Factor XI mRNA levels were adjusted according to total RNA content, as measured by RIBOGREEN®. Results are presented as percent inhibition of Factor XI, relative to untreated control cells.
The chimeric antisense oligonucleotides in Table 4 were designed as 5-10-5 MOE, 3-14-3 MOE, and 2-13-5 MOE gapmers. The first listed gapmers in Table 4 are the original gapmers (see Table 3) from which the remaining gapmers were designed via microwalk and are designated by an asterisk. The 5-10-5 gapmers are 20 nucleotides in length, wherein the central gap segment is comprised of 10 2′-deoxynucleotides and is flanked on both sides (in the 5′ and 3′ directions) by wings comprising 5 nucleotides each. The 3-14-3 gapmers are 20 nucleotides in length, wherein the central gap segment is comprised of 14 2′-deoxynucleotides and is flanked on both sides (in the 5′ and 3′ directions) by wings comprising 3 nucleotides each. The 2-13-5 gapmers are 20 nucleotides in length, wherein the central gap segment is comprised of 13 2′-deoxynucleotides. The central gap is flanked on the 5′ end with a wing comprising 2 nucleotides and on the 3′ end with a wing comprising 5 nucleotides. For each of the motifs (5-10-5, 3-14-3, and 2-13-5), each nucleotide in the 5′ wing segment and each nucleotide in the 3′ wing segment has a 2′-MOE modification. The internucleoside linkages throughout each gapmer are phosphorothioate (P═S) linkages. All cytidine residues throughout each gapmer are 5-methylcytidines. “Target start site” indicates the 5′-most nucleotide to which the gapmer is targeted. “Target stop site” indicates the 3′-most nucleotide to which the gapmer is targeted. Each gapmer listed in Table 4 is targeted to SEQ ID NO: 1 (GENBANK Accession No. NM_000128.3).

[1] = oligonucleotides targeted to nucleobases 1062 to 1091 of SEQ ID NO: 1
[2] = oligonucleotides targeted to nucleobases 1275 to 1318 of SEQ ID NO: 1
[3] = oligonucleotides targeted to nucleobases 738 to 762 of SEQ ID NO: 1
[4] = oligonucleotides targeted to nucleobases 1018 to 1042 of SEQ ID NO: 1

| Substance | % inhibition of human Factor XI mRNA levels [1] | % inhibition of human Factor XI mRNA levels [2] | other results |
| --- | --- | --- | --- |
| 416913 (antisense eT*eG*eA*dG*dA*dT*dT*d[5mC]*dT*dT*dT*dG*dG*dG*d[5mC]*d[5mC]*dA*eT*eT*e[5mC]) [compound 416913] | 93% | – | – |
| 416914 (antisense eT*eT*eG*dA*dG*dA*dT*dT*d[5mC]*dT*dT*dT*dG*dG*dG*d[5mC]*d[5mC]*eA*eT*eT) [compound 416914] | 87% | – | – |
| 416915 (antisense eT*eT*eT*dG*dA*dG*dA*dT*dT*d[5mC]*dT*dT*dT*dG*dG*dG*d[5mC]*e[5mC]*eA*eT) [compound 416915] | 79% | – | – |
| 416916 (antisense e[5mC]*eT*eT*dT*dG*dA*dG*dA*dT*dT*d[5mC]*dT*dT*dT*dG*dG*dG*e[5mC]*e[5mC]*eA) [compound 416916] | 91% | – | – |
| 416917 (antisense eT*e[5mC]*eT*dT*dT*dG*dA*dG*dA*dT*dT*d[5mC]*dT*dT*dT*dG*dG*eG*e[5mC]*e[5mC]) [compound 416917] | 92% | – | – |
| 416918 (antisense eT*eT*e[5mC]*dT*dT*dT*dG*dA*dG*dA*dT*dT*d[5mC]*dT*dT*dT*dG*eG*eG*e[5mC]) [compound 416918] | 63% | – | – |
| 416919 (antisense eT*eT*eT*d[5mC]*dT*dT*dT*dG*dA*dG*dA*dT*dT*d[5mC]*dT*dT*dT*eG*eG*eG) [compound 416919] | 27% | – | – |
| 416920 (antisense eA*e[5mC]*eA*dG*dT*dT*dT*d[5mC]*dT*dG*dG*d[5mC]*dA*dG*dG*d[5mC]*d[5mC]*eT*e[5mC]*eG) [compound 416920] | – | 88% | – |
| 416921 (antisense e[5mC]*eA*e[5mC]*dA*dG*dT*dT*dT*d[5mC]*dT*dG*dG*d[5mC]*dA*dG*dG*d[5mC]*e[5mC]*eT*e[5mC]) [compound 416921] | – | 88% | – |
| 416927 (antisense eT*eT*eG*dG*dT*dG*d[5mC]*dA*d[5mC]*dA*dG*dT*dT*dT*d[5mC]*dT*dG*eG*e[5mC]*eA) [compound 416927] | – | 87% | – |
| 416928 (antisense eA*eT*eT*dG*dG*dT*dG*d[5mC]*dA*d[5mC]*dA*dG*dT*dT*dT*d[5mC]*dT*eG*eG*e[5mC]) [compound 416928] | – | 91% | – |
| 416929 (antisense e[5mC]*eA*eT*dT*dG*dG*dT*dG*d[5mC]*dA*d[5mC]*dA*dG*dT*dT*dT*d[5mC]*eT*eG*eG) [compound 416929] | – | 83% | – |
| 416930 (antisense eG*e[5mC]*eA*dT*dT*dG*dG*dT*dG*d[5mC]*dA*d[5mC]*dA*dG*dT*dT*dT*e[5mC]*eT*eG) [compound 416930] | – | 87% | – |
| 416932 (antisense e[5mC]*eG*eG*d[5mC]*dA*dT*dT*dG*dG*dT*dG*d[5mC]*dA*d[5mC]*dA*dG*dT*eT*eT*e[5mC]) [compound 416932] | – | 92% | – |
| 416933 (antisense eA*e[5mC]*eG*dG*d[5mC]*dA*dT*dT*dG*dG*dT*dG*d[5mC]*dA*d[5mC]*dA*dG*eT*eT*eT) [compound 416933] | – | 92% | – |
| 416934 (antisense eG*eA*e[5mC]*dG*dG*d[5mC]*dA*dT*dT*dG*dG*dT*dG*d[5mC]*dA*d[5mC]*dA*eG*eT*eT) [compound 416934] | – | 90% | – |
| 416935 (antisense eG*eG*eA*d[5mC]*dG*dG*d[5mC]*dA*dT*dT*dG*dG*dT*dG*d[5mC]*dA*d[5mC]*eA*eG*eT) [compound 416935] | – | 92% | – |
| 416936 (antisense e[5mC]*eG*eG*dA*d[5mC]*dG*dG*d[5mC]*dA*dT*dT*dG*dG*dT*dG*d[5mC]*dA*e[5mC]*eA*eG) [compound 416936] | – | 89% | – |
| 416937 (antisense eG*e[5mC]*eG*dG*dA*d[5mC]*dG*dG*d[5mC]*dA*dT*dT*dG*dG*dT*dG*d[5mC]*eA*e[5mC]*eA) [compound 416937] | – | 93% | – |
| 416938 (antisense eA*eG*e[5mC]*dG*dG*dA*d[5mC]*dG*dG*d[5mC]*dA*dT*dT*dG*dG*dT*dG*e[5mC]*eA*e[5mC]) [compound 416938] | – | 90% | – |

| Substance | % inhibition of human Factor XI mRNA levels [1] | % inhibition of human Factor XI mRNA levels [2] | other results |
| --- | --- | --- | --- |
| 416939 (antisense e[5mC]*eA*eG*d[5mC]*dG*dG*dA*d[5mC]*dG*dG*d[5mC]*dA*dT*dT*dG*dG*dT*eG*e[5mC]*eA) [compound 416939] | – | 88% | – |
| 416940 (antisense eG*e[5mC]*eA*dG*d[5mC]*dG*dG*dA*d[5mC]*dG*dG*d[5mC]*dA*dT*dT*dG*dG*eT*eG*e[5mC]) [compound 416940] | – | 92% | – |
| 416942 (antisense eT*eG*eG*d[5mC]*dA*dG*d[5mC]*dG*dG*dA*d[5mC]*dG*dG*d[5mC]*dA*dT*dT*eG*eG*eT) [compound 416942] | – | 85% | – |
| 416943 (antisense e[5mC]*eT*eG*dG*d[5mC]*dA*dG*d[5mC]*dG*dG*dA*d[5mC]*dG*dG*d[5mC]*dA*dT*eT*eG*eG) [compound 416943] | – | 92% | – |
| 416944 (antisense eA*e[5mC]*eT*dG*dG*d[5mC]*dA*dG*d[5mC]*dG*dG*dA*d[5mC]*dG*dG*d[5mC]*dA*eT*eT*eG) [compound 416944] | – | 83% | – |
| 416975 (antisense e[5mC]*e[5mC]*dG*dT*dG*d[5mC]*dA*dT*d[5mC]*dT*dT*dT*d[5mC]*dT*dT*eG*eG*e[5mC]*eA*eT) [compound 416975] | – | – | % inhibition of human Factor XI mRNA levels [3]: 87% |
| 416976 (antisense eT*e[5mC]*d[5mC]*dG*dT*dG*d[5mC]*dA*dT*d[5mC]*dT*dT*dT*d[5mC]*dT*eT*eG*eG*e[5mC]*eA) [compound 416976] | – | – | % inhibition of human Factor XI mRNA levels [3]: 83% |
| 416977 (antisense eA*eT*d[5mC]*d[5mC]*dG*dT*dG*d[5mC]*dA*dT*d[5mC]*dT*dT*dT*d[5mC]*eT*eT*eG*eG*e[5mC]) [compound 416977] | – | – | % inhibition of human Factor XI mRNA levels [3]: 82% |
| 416978 (antisense e[5mC]*eA*dT*d[5mC]*d[5mC]*dG*dT*dG*d[5mC]*dA*dT*d[5mC]*dT*dT*dT*e[5mC]*eT*eT*eG*eG) [compound 416978] | – | – | % inhibition of human Factor XI mRNA levels [3]: 76% |
| 416979 (antisense eT*e[5mC]*dA*dT*d[5mC]*d[5mC]*dG*dT*dG*d[5mC]*dA*dT*d[5mC]*dT*dT*eT*e[5mC]*eT*eT*eG) [compound 416979] | – | – | % inhibition of human Factor XI mRNA levels [3]: 63% |
| 416980 (antisense eG*eT*d[5mC]*dA*dT*d[5mC]*d[5mC]*dG*dT*dG*d[5mC]*dA*dT*d[5mC]*dT*eT*eT*e[5mC]*eT*eT) [compound 416980] | – | – | % inhibition of human Factor XI mRNA levels [3]: 87% |
| 416981 (antisense e[5mC]*e[5mC]*dG*dG*dG*dA*dT*dG*dA*dT*dG*dA*dG*dT*dG*e[5mC]*eA*eG*eA*eT) [compound 416981] | – | – | % inhibition of human Factor XI mRNA levels [4]: 87% |
| 416982 (antisense eA*e[5mC]*d[5mC]*dG*dG*dG*dA*dT*dG*dA*dT*dG*dA*dG*dT*eG*e[5mC]*eA*eG*eA) [compound 416982] | – | – | % inhibition of human Factor XI mRNA levels [4]: 84% |
| 416983 (antisense eA*eA*d[5mC]*d[5mC]*dG*dG*dG*dA*dT*dG*dA*dT*dG*dA*dG*eT*eG*e[5mC]*eA*eG) [compound 416983] | – | – | % inhibition of human Factor XI mRNA levels [4]: 86% |
| 416986 (antisense eA*eT*dT*d[5mC]*dT*dT*dT*dG*dG*dG*d[5mC]*d[5mC]*dA*dT*dT*e[5mC]*e[5mC]*eT*eG*eG) [compound 416986] | 88% | – | – |
| 416987 (antisense eG*eA*dT*dT*d[5mC]*dT*dT*dT*dG*dG*dG*d[5mC]*d[5mC]*dA*dT*eT*e[5mC]*e[5mC]*eT*eG) [compound 416987] | 80% | – | – |
| 416988 (antisense eA*eG*dA*dT*dT*d[5mC]*dT*dT*dT*dG*dG*dG*d[5mC]*d[5mC]*dA*eT*eT*e[5mC]*e[5mC]*eT) [compound 416988] | 76% | – | – |
| 416990 (antisense eT*eG*dA*dG*dA*dT*dT*d[5mC]*dT*dT*dT*dG*dG*dG*d[5mC]*e[5mC]*eA*eT*eT*e[5mC]) [compound 416990] | 76% | – | – |
| 416991 (antisense eT*eT*dG*dA*dG*dA*dT*dT*d[5mC]*dT*dT*dT*dG*dG*dG*e[5mC]*e[5mC]*eA*eT*eT) [compound 416991] | 87% | – | – |
